In PMC8864165, “Functional Effects of ARV-1502 Analogs Against Bacterial Hsp70 and Implications for Antimicrobial Activity” (Frontiers in Chemistry, 2022):
In brackets after ≈: the same amount, converted by molar mass. Square brackets hold non-standard residues; d marks the D form. Peptide text beside a SMILES is read from it. * marks the point of attachment. 5FAM = O=C1OC2(c3ccc(O)cc3Oc3cc(O)ccc32)c2ccc(C(=O)*)cc21; Ac6c = NC1(C(=O)O)CCCCC1

Experiments:
S. aureus DnaK [1] = molecular target: T1, S. aureus DnaK (Staphylococcus aureus, UniProt P99110); test: Fluorescence polarization Kd with Cf-labeled peptide; format: binding
T1 construct: His6-tag with TEV site ([…]) (N, cleaved yes); made in house; host or cells: E. coli (DE3) Rosetta pLysS
T1 sequence (P99110 whole entry): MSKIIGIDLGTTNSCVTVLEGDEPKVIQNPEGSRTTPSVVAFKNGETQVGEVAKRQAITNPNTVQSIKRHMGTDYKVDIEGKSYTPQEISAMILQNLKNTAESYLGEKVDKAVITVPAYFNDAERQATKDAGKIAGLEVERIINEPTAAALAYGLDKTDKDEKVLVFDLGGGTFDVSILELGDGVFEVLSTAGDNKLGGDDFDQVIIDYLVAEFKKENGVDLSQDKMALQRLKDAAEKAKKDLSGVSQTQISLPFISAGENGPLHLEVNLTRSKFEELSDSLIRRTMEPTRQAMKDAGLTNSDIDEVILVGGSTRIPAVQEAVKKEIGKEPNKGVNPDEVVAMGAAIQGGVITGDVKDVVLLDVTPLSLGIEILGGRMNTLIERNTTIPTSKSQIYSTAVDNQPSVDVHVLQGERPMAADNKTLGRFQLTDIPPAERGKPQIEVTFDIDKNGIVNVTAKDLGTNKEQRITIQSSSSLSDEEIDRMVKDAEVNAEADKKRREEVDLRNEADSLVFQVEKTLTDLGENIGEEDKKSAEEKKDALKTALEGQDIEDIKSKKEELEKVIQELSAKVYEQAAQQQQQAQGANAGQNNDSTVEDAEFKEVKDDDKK
Procedure: (§3) Dissociation (Kd) and inhibitory constants (Ki) were measured using a previously reported protocol with slight modifications ([Krizsan et al., 2015]; [Kolano et al., 2020]). Briefly, black 384-well plates (flat bottom, Greiner Bio-One GmbH, Frickenhausen, Germany) were blocked with 0.5% (w/v) casein in phosphate buffered saline (PBS; 10 mmol/L Na2HPO4, 0.2 mmol/L KH2PO4, 137 mmol/L NaCl, 2.7 mmol/L KCl, pH 7.4) containing 0.05% (w/v) Tween® 20 (PBST) at 4°C overnight and washed three times with PBST. […] The 5 (6)-carboxyfluorescein-labeled peptide was added (20 μL/well, 40 nmol/L), incubated (2 h, 28°C, dark), and the fluorescence polarization recorded at an excitation wavelength (λ ex) of 485 nm and an emission wavelength (λem) of 535 nm using a […] ™ microplate reader (Beckman Coulter, Krefeld, Germany). Ki values were determined using a twofold dilution series of unlabeled peptide (20 µL/well) and DnaK (10 µL/well). The plate was incubated at 28°C in the dark for 90 min before the Cf-labeled peptides were added (10 µL/well, 80 nmol/L). After a second incubation (90 min, 28°C), the fluorescence polarization was recorded (λ ex = 485 nm, λ em = 535 nm). Dissociation and inhibitory constants were calculated by fitting the data with a variable slope parameter [y = min + (max- min)/(1+(x/Kd) ^−Hill slope)] using SigmaPlot 13 (Systat Software Inc., San Jose, CA, United States).

E. coli DnaK [2] = molecular target: T2, E. coli DnaK (Escherichia coli, UniProt P0A6Y8); format: binding
T2 construct: His6-tag with TEV site ([…]) (N, cleaved yes); made in house; host or cells: E. coli (DE3) Rosetta pLysS
T2 sequence (P0A6Y8 whole entry): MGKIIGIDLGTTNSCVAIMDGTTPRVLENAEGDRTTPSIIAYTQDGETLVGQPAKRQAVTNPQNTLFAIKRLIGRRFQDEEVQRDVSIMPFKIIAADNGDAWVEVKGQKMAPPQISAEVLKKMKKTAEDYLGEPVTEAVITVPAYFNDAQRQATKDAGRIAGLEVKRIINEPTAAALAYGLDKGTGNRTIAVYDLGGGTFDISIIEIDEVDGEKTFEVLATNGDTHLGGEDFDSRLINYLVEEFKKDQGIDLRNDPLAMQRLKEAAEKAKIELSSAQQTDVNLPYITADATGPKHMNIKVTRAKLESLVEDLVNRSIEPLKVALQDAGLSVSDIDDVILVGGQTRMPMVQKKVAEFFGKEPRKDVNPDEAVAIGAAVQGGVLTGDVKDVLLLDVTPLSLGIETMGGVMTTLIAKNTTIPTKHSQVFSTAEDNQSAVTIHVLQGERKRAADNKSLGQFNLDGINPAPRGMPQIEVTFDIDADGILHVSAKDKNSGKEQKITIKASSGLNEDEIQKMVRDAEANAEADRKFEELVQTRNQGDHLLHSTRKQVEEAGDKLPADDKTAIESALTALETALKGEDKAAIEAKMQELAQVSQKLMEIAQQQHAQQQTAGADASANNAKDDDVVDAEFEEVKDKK
Procedure: The plate was incubated (90 min, 28°C, dark) and Cf-ARV-1502 (80 nmol/L; 10 µL/well) added. […] Each peptide was screened in duplicate. Control samples either lacked the unlabeled peptide (maximum) or contained Cf-ARV-1502 in buffer (minimum).
The quality of the experimental set up was evaluated by the Z′ factor ([Zhang et al., 1999]) (Supplementary Table S2). […] The obtained FP-values were normalized to the FP-values determined for lead sequence ARV-1502.

S. aureus DnaK [3] = molecular target: T1, S. aureus DnaK; test: FP peptide binding screening against Cf-ARV-1502; settings: screening: DnaK 16 µmol/L, unlabeled peptide 35 µmol/L, duplicate, below 1 = better than ARV-1502
E. coli JW0013 ∆dnaK = settings: 25% MHB2, 37°C, 20 h
E. coli DnaK [4] = molecular target: T2, E. coli DnaK; test: ATPase activity assay (malachite green), DnaK alone; format: biochemical; settings: ARV-1502 concentration series, plateau
Procedure: (§1) ATPase activity of E. coli and S. aureus chaperones was studied in the presence of an AMP using a 384-well plate colorimetric assay ([Chang et al., 2008]; [Zahn et al., 2013]). […] Each sample was prepared in triplicates on the same plate. The reaction was started by addition of ATP dissolved in assay buffer (5 µL, 4 mmol/L) and the plate centrifuged (500 × g, 2 min; Allegra™ 21R, Beckmann Coulter, Krefeld, Germany) before incubated (37°C, 2 h). The released phosphate was quantified using an external phosphate dilution series (10–200 µmol/L KH2PO4 in assay buffer) prepared on each plate and treated equally as the samples. The reaction was stopped by adding assay buffer (80 µL) to all samples except the phosphate dilution series. […] After 15 min, the absorbance was recorded at 620 nm on the […]™ microplate reader. […]
(§2) The impact of ARV-1502 and its analogs on the ATPase activity of DnaK was investigated in 384-well plates using the malachite green absorbance assay, which quantitates phosphate (Pi) cleaved from ATP confirming for example the ATPase activity of DnaK. The established assay allowed a robust and reproducible quantitation of phosphate from 10 to 150 µmol/L and was easy to handle (Supplementary Figure S3) providing the intended high-throughput screening. […]

S. aureus DnaK [5] = molecular target: T1, S. aureus DnaK; test: as above; format: biochemical; settings: ARV-1502 concentration series, plateau
Procedure: as §1, §2

E. coli BW25113 = settings: 25% MHB2, 7.5 × 10^6 cfu/mL, 37°C, 20 h
Procedure: Minimal inhibitory concentrations (MICs) were determined using a liquid broth micro dilution assay in sterile 96-well plates (polystyrene F-bottom, Greiner Bio-One GmbH) and a total volume of 100 μL per well. […] Overnight cultures of bacteria, i.e., E. coli BW25113 or S. aureus DSM 6247, grown in 25% MHB2 were diluted 30-fold in 25% MHB2. After an incubation period of 4 h (37°C, 200 rpm), cells were diluted to 1.5 × 10^7 cfu/mL, based on a McFarland test, and 50 μL were added to each well (final concentration of 7.5 × 10^6 cfu/mL per well). The plates were incubated (37°C, 20 h) and the optical density was determined at 595 nm using the […]™ microplate reader. The MIC was defined as the lowest peptide concentration preventing visible bacterial growth.

E. coli DnaK/DnaJ/GrpE = molecular target: T3, E. coli DnaK/DnaJ/GrpE (Escherichia coli, UniProt P0A6Y8); test: Fluorescence polarization Kd with Cf-labeled peptide, full chaperone system; format: binding; settings: ratio of Kd
T3 construct: made in house; host or cells: E. coli (DE3) Rosetta pLysS
T3 sequence (P0A6Y8 whole entry): as above
Procedure: as §3

E. coli DnaJ = E. coli DnaJ (Escherichia coli, UniProt P08622); test: Fluorescence polarization Kd with Cf-labeled peptide; settings: E. coli proteins, ratio of Kd
Sequence of E. coli DnaJ (P08622 whole entry): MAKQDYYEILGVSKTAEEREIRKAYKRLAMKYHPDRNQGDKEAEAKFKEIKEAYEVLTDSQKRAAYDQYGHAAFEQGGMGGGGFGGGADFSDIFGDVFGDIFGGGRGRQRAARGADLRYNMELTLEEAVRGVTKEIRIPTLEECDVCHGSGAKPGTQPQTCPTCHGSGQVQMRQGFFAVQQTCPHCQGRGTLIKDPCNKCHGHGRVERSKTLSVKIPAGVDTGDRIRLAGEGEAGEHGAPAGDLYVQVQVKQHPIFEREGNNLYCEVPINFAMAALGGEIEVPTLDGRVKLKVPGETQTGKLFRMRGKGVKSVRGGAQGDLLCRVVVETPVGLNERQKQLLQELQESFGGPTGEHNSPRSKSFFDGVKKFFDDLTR
Procedure: as §3

E. coli GrpE = E. coli GrpE (Escherichia coli, UniProt P09372); test: as above; settings: E. coli proteins, ratio of Kd
Sequence of E. coli GrpE (P09372 whole entry): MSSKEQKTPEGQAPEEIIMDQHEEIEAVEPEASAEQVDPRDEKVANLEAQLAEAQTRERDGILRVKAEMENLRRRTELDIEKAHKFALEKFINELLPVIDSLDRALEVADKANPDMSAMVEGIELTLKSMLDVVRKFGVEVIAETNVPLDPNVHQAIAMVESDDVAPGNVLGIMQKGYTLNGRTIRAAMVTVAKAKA
Procedure: as §3

S. aureus DnaJ = S. aureus DnaJ (Staphylococcus aureus, UniProt P63971); test: as above; settings: FP, * = upper plateau not reached, Kd only approximate
Sequence of S. aureus DnaJ (P63971 whole entry): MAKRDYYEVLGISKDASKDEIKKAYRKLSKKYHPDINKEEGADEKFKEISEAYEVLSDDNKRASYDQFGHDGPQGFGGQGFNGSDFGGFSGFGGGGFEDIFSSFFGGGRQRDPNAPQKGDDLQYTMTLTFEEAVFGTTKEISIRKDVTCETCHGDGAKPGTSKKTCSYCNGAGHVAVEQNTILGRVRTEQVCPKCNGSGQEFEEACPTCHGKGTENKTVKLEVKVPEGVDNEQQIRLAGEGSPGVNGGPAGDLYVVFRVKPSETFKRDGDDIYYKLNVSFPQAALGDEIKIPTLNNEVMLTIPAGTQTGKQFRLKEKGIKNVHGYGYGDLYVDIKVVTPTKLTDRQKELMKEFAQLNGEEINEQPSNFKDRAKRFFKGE
Procedure: as §3

SMILES: CC(C)C[C@H](NC(=O)[C@H](Cc1ccc(O)cc1)NC(=O)[C@@H]1CCCN1C(=O)[C@H](CCCNC(=N)N)NC(=O)[C@@H]1CCCN1C(=O)[C@H](Cc1ccccc1)NC(=O)[C@H](Cc1ccccc1)NC(=O)[C@@H]1CCCN1C(=O)[C@H](CCCNC(=N)N)NC(=O)C1(N)CCCCC1)C(=O)N1CCC[C@H]1C(=O)N[C@@H](CC(C)C)C(=O)N1CCC[C@H]1C(=O)N[C@@H](CCCNC(=N)N)C(=O)N1CCC[C@H]1C(=O)N1CCC[C@H]1C(=O)N[C@@H](CCCNC(=N)N)C(=O)N1CCC[C@H]1C(=O)N[C@H](C(=O)N[C@@H](CCCNC(=N)N)C(N)=O)C(C)C [peptide 102] (H-[Ac6c]RPFFPRPYLPLPRPPRPVR-NH2)
- fold lower Kd than lead structure ARV-1502, S. aureus DnaK (S. aureus DnaK [1]; ratio of Kd of Cf-labeled peptides): 20 fold
- binding to E. coli DnaK, FP-value normalized to ARV-1502 (E. coli DnaK [2]): best binders
- binding to S. aureus DnaK, FP-value normalized to ARV-1502 (S. aureus DnaK [3]): best binders
- MIC, E. coli JW0013 ∆dnaK (E. coli JW0013 ∆dnaK): 32 µg/mL (≈ 12.9 µM)

SMILES: CC(C)C[C@H](NC(=O)[C@H](Cc1ccc(O)cc1)NC(=O)[C@@H]1CCCN1C(=O)[C@H](CCCNC(=N)N)NC(=O)[C@@H]1CCCN1C(=O)[C@H](CCCCN)NC(=O)[C@H](CC(=O)O)NC(=O)[C@@H]1CCCN1C(=O)[C@H](CCCNC(=N)N)NC(=O)C1(N)CCCCC1)C(=O)N1CCC[C@H]1C(=O)N[C@@H](CCCNC(=N)N)C(=O)N1CCC[C@H]1C(=O)N[C@@H](CCCNC(=N)N)C(=O)N1CCC[C@H]1C(=O)N1CCC[C@H]1C(=O)N[C@@H](CCCNC(=N)N)C(=O)N1CCC[C@H]1C(=O)N[C@H](C(=O)N[C@@H](CCCNC(=N)N)C(N)=O)C(C)C [ARV-1502] (H-[Ac6c]RPDKPRPYLPRPRPPRPVR-NH2)
- increase of intrinsic ATPase activity of E. coli DnaK (E. coli DnaK [4]): ~250%
- stimulation of intrinsic ATPase activity of S. aureus DnaK (S. aureus DnaK [5]): 50%
- MIC, E. coli JW0013 ∆dnaK (E. coli JW0013 ∆dnaK): 4 to 8 µg/mL

SMILES: CC(C)C[C@H](NC(=O)[C@H](Cc1ccc(O)cc1)NC(=O)[C@@H]1CCCN1C(=O)[C@H](CCCNC(=N)N)NC(=O)[C@@H]1CCCN1C(=O)[C@H](CCCCN)NC(=O)[C@H](CCCCN)NC(=O)[C@@H]1CCCN1C(=O)[C@H](CCCNC(=N)N)NC(=O)C1(N)CCCCC1)C(=O)N1CCC[C@H]1C(=O)N[C@@H](CC(C)C)C(=O)N1CCC[C@H]1C(=O)N[C@@H](CCCNC(=N)N)C(=O)N1CCC[C@H]1C(=O)N1CCC[C@H]1C(=O)N[C@@H](CCCNC(=N)N)C(=O)N1CCC[C@H]1C(=O)N[C@H](C(=O)N[C@@H](CCCNC(=N)N)C(N)=O)C(C)C [compound 45] (H-[Ac6c]RPKKPRPYLPLPRPPRPVR-NH2)
- DnaK binding in the screening, in words (E. coli DnaK [2]; FP screening, DnaK variant not stated at the place): best binding
- MIC, E. coli BW25113 (E. coli BW25113): >128 µg/mL
- MIC, E. coli JW0013 ∆dnaK (E. coli JW0013 ∆dnaK): >128 µg/mL

SMILES: CC(C)C[C@H](NC(=O)[C@H](Cc1ccc(O)cc1)NC(=O)[C@@H]1CCCN1C(=O)[C@H](CCCNC(=N)N)NC(=O)[C@@H]1CCCN1C(=O)[C@H](CCCCN)NC(=O)[C@H](CC(=O)O)NC(=O)[C@@H]1CCCN1C(=O)[C@H](CCCNC(=N)N)NC(=O)C1(NC(=O)c2ccc3c(c2)C(=O)OC32c3ccc(O)cc3Oc3cc(O)ccc32)CCCCC1)C(=O)N1CCC[C@H]1C(=O)N[C@@H](CCCNC(=N)N)C(=O)N1CCC[C@H]1C(=O)N[C@@H](CCCNC(=N)N)C(=O)N1CCC[C@H]1C(=O)N1CCC[C@H]1C(=O)N[C@@H](CCCNC(=N)N)C(=O)N1CCC[C@H]1C(=O)N[C@H](C(=O)N[C@@H](CCCNC(=N)N)C(N)=O)C(C)C [Cf-ARV-1502] (5FAM-[Ac6c]RPDKPRPYLPRPRPPRPVR-NH2)
- fold higher Kd for E. coli DnaK/DnaJ/GrpE-system than for DnaK alone (E. coli DnaK/DnaJ/GrpE): 15 fold
- times weaker binding to S. aureus DnaK than to E. coli DnaK (S. aureus DnaK [1]; ratio of Kd): around 100 times
- fold weaker binding to DnaJ than to DnaK (E. coli DnaJ): ~150 fold
- fold weaker binding to GrpE than to DnaK (E. coli GrpE): ~1,000 fold
- Kd, S. aureus DnaJ (S. aureus DnaJ): no fit
